In PubChem BioAssay (NCI):
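Growth conditions: 96-well plates. Treatment: test compound, 48 hours, 5 concentrations. Analysis: linear interpolation between bracketing concentrations; unreached endpoints set to highest concentration. Definition used: TGI = concentration required for complete inhibition of growth.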

Assays:
Assay in all cases: DTP human tumour cell line panel, 48 h
[1] = system: IGROV1 ovarian
[2] = system: NCI-H460 lung
[3] = system: SK-MEL-28 melanoma
[4] = system: A498 renal
[5] = system: SN12C renal
[6] = system: HOP-92 NSCLC
[7] = system: CCRF-CEM leukemia
[8] = system: NCI-H522 lung
[9] = system: CAKI-1 renal
[10] = system: KM12 colon
[11] = system: SK-MEL-2 melanoma
[12] = system: K-562 leukemia
[13] = system: PC-3 prostate
[14] = system: HOP-62 NSCLC
[15] = system: OVCAR-5 ovarian
[16] = system: 786-0 renal
[17] = system: ACHN renal
[18] = system: HCT-15 colon
[19] = system: LOX IMVI melanoma
[20] = system: COLO 205 colon
[21] = system: SF-268 CNS
[22] = system: MALME-3M melanoma
[23] = system: DU-145 prostate
[24] = system: SR leukemia
[25] = system: TK-10 renal
[26] = system: SF-539 CNS
[27] = system: SK-MEL-5 melanoma
[28] = system: MDA-MB-435
[29] = system: MCF7 breast
[30] = system: SK-OV-3 ovarian
[31] = system: EKVX NSCLC
[32] = system: RPMI-8226 leukemia
[33] = system: OVCAR-3 ovarian
[34] = system: OVCAR-8 ovarian
[35] = system: MDA-N
[36] = system: SF-295 CNS
[37] = system: NCI/ADR-RES ovarian
[38] = system: T-47D breast
[39] = system: UACC-257 melanoma
[40] = system: NCI-H23 lung
[41] = system: HT29 colon
[42] = system: UO-31 renal
[43] = system: HCT-116 colon
[44] = system: MDA-MB-231 breast
[45] = system: A549 NSCLC
[46] = system: UACC-62 melanoma
[47] = system: MOLT-4 leukemia
[48] = system: SW-620 colon
[49] = system: HS 578T breast
[50] = system: HL-60(TB) leukemia
[51] = system: SNB-19 CNS
[52] = system: HCC-2998 colon
[53] = system: U251 CNS
[54] = system: BT-549 breast
[55] = system: OVCAR-4 ovarian
[56] = system: SNB-75 CNS
[57] = system: RXF 393 renal
[58] = system: NCI-H226 lung
[59] = system: M14 melanoma

Measured: TGI

O=C1CSC(c2cccc(Cl)c2)N1c1ccc(-n2c(-c3ccccc3)nc3ccccc3c2=O)cc1 (stereo not drawn)
62.9 µM: [55]
24.7 µM: [42]
not listed: [56] | [57] | [58] | [59]
> 100 µM: all other assays above

O=C1NC(=O)C(c2c[nH]c3cc(Br)ccc23)=C1c1cnc[nH]1
25 µM: [27]
79.3 µM: [11]
72.6 µM: [26]
7.87 µM: [58]
81.4 µM: [33]
93.3 µM: [50]
44.9 µM: [39]
75 µM: [54]
52.2 µM: [4]
98.7 µM: [8]
63.2 µM: [20]
not listed: [40] | [46] | [52]
> 100 µM: all other assays above

O=C(O)CNCP(=O)(O)O
not listed: [42] | [52]
> 100 µM: all other assays above
